23 compounds from US12528815B2, “5-amino-8-(4-pyridyl)-[1,2,4]triazolo[4,3-c]pyrimidin-3-one compounds for use against cancer” (Nxera Pharma UK Limited, priority 2020, dated 2026) can be followed below.

For assay [1], the target named is T1, human adenosine A1 receptor (Homo sapiens, UniProt P30542).
T1 construct: expressed in transfected cells; host or cells: HEK293 cells infected with BacMam (the same paragraph also labels the preparation CHO-hA1)
T1 sequence (P30542 1-326): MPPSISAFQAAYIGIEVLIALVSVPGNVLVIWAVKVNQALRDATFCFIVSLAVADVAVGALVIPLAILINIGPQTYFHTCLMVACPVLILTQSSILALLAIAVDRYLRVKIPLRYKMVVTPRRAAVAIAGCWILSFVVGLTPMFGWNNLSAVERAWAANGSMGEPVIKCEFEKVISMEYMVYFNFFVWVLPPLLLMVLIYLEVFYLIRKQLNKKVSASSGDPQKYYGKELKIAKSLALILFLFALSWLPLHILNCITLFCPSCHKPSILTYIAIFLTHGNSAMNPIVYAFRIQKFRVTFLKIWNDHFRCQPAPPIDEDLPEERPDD
As to the kind of experiment: Inhibition binding assay, human adenosine A1 receptor membranes, [3H]DPCPX. Conditions: 1 nM [3H]DPCPX, 25° C., 1 h; IC50 converted to Ki with Cheng-Prusoff; read-out: A1 pKi (converted). The method, then:
(§1) Inhibition binding assays were performed using 0.2 μg of membranes prepared from HEK293 cells infected with BacMam human adenosine A2A receptor or 1.4 μg of membranes prepared from HEK293 cells infected with BacMam human adenosine A1 receptor. Membranes were incubated in 50 mM Tris-HCl (HEK293-hA2A; pH 7.4) or 50 mM Tris-HCl, 100 mM NaCl, 10 mM MgCl2 (CHO-hA1; pH 7.4) in the presence of varying concentrations of test compound and 1 nM [^3H]ZM241385 (HEK293-hA2A) or [^3H]DPCPX (CHO-hA1) at 25° C. for 1 h. The assay was then terminated by rapid filtration onto GF/B grade Unifilter plates using a TomTec cell harvester, followed by 5×0.5 ml washes with ddH2O. Nonspecific binding was defined in the presence of 1 μM CGS15943 (HEK293-hA2A) or 1 μM DPCPX (CHO-hA1). Bound radioactivity was determined by liquid scintillation counting and inhibition curves were analysed using a four-parameter logistic equation. IC50 values were converted to Ki values with the Cheng-Prusoff equation using a KD value derived from saturation binding studies.

Assay [2] has as its target T2, human adenosine A2A receptor (Homo sapiens, UniProt P29274).
T2 construct: expressed in transfected cells; host or cells: HEK293 cells infected with BacMam
As to the kind of experiment: Inhibition binding assay, human adenosine A2A receptor membranes, [3H]ZM241385. Particulars: 1 nM [3H]ZM241385, HEK293-hA2A membranes, 25° C., 1 h; IC50 converted to Ki with Cheng-Prusoff; read-out: A2A pKi (converted). The method, then: as §1

T2 sequence (P29274 whole entry): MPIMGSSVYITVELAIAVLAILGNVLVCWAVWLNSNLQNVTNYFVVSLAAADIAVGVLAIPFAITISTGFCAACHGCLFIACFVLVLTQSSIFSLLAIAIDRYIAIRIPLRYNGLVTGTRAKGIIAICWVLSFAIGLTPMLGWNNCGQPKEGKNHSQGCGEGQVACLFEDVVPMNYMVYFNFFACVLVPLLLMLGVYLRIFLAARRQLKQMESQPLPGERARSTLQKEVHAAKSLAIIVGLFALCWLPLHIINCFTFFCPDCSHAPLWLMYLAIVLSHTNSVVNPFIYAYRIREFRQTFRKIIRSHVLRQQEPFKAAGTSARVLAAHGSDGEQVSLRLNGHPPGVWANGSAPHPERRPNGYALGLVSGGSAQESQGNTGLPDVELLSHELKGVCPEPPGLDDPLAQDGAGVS

On to `Cc1cc(-c2c(-c3ccccc3)nc(N)n3c(=O)n([C@@H]4CCCc5ccc(F)cc54)nc23)cc(C)n1` [Example 1-14, (R)-5-amino-8-(2,6-dimethyl-4-pyridyl)-2-(7-fluorotetralin-1-yl)-7-phenyl-[1,2,4]triazolo[4,3-c]pyrimidin-3-one], for which the Ki was 0.02 µM in assay [1] and 0.00316 µM in assay [2].
For `Cc1cc(-c2c(-c3ccccc3)nc(N)n3c(=O)n(CCN4CCC(F)(F)CC4)nc23)cc(C)n1` [Example 2-101, 5-amino-2-[2-(4,4-difluoro-1-piperidyl)ethyl]-8-(2,6-dimethyl-4-pyridyl)-7-phenyl-[1,2,4]triazolo[4,3-c]pyrimidin-3-one], in that order: 0.631 µM and 0.0158 µM.
For `Cc1cc(-c2c(-c3ccccc3)nc(N)n3c(=O)n(Cc4ccccc4C4CCNCC4)nc23)cc(C)n1` [Example 1-30, 5-amino-8-(2,6-dimethyl-4-pyridyl)-7-phenyl-2-[[2-(4-piperidyl)phenyl]methyl]-[1,2,4]triazolo[4,3-c]pyrimidin-3-one], in that order: 0.0398 µM and 0.000501 µM.
For `Cc1cc(-c2c(-c3ccccc3)nc(N)n3c(=O)n(CCN4CCC4)nc23)cc(C)n1` [Example 2-94, 5-amino-2-[2-(azetidin-1-yl)ethyl]-8-(2,6-dimethyl-4-pyridyl)-7-phenyl-[1,2,4]triazolo[4,3-c]pyrimidin-3-one], in that order: greater than 2.51 µM and 0.0251 µM.
Turning to `Cc1cc(-c2c(-c3ccccc3)nc(N)n3c(=O)n(Cc4cccnn4)nc23)cc(C)[n+]1[O-]` [Example 1-43, 5-amino-8-(2,6-dimethyl-1-oxido-pyridin-1-ium-4-yl)-7-phenyl-2-(pyridazin-3-ylmethyl)-[1,2,4]triazolo[4,3-c]pyrimidin-3-one], the Ki is 0.316 µM in assay [1] and 0.0316 µM in assay [2].
The like results for `Cc1cc(-c2c(-c3ccccc3)nc(N)n3c(=O)n(CCO)nc23)cc(C)n1` [Example 2-7, 5-amino-8-(2,6-dimethyl-4-pyridyl)-2-(2-hydroxyethyl)-7-phenyl-[1,2,4]triazolo[4,3-c]pyrimidin-3-one] were, in that order, 1 µM and 0.1 µM.
The like results for `Cc1cc(-c2c(-c3ccccc3)nc(N)n3c(=O)n(CCc4ccccc4)nc23)cc(Cl)n1` [Example 1-89, 5-amino-8-(2-chloro-6-methyl-4-pyridyl)-7-phenyl-2-(2-phenylethyl)-[1,2,4]triazolo[4,3-c]pyrimidin-3-one] were, in that order, 0.126 µM and 0.00501 µM.
The like results for `Cc1cc(-c2c(-c3ccccc3)nc(N)n3c(=O)n(CCc4ccccc4)nc23)cc(C(F)(F)F)n1` [Example 1-88, 5-amino-8-[2-methyl-6-(trifluoromethyl)-4-pyridyl]-7-phenyl-2-(2-phenylethyl)-[1,2,4]triazolo[4,3-c]pyrimidin-3-one] were, in that order, 0.1 µM and 0.0126 µM.
Turning to `Cc1cc(-c2c(-c3ccccc3)nc(N)n3c(=O)[nH]nc23)cc(C)n1` [Example 2-1, 5-amino-8-(2,6-dimethyl-4-pyridyl)-7-phenyl-2H-[1,2,4]triazolo[4,3-c]pyrimidin-3-one], the Ki in assay [1] is 0.0794 µM; in assay [2], 0.00501 µM.
For the compound `Cc1ccc(Cn2nc3c(-c4cc(C)nc(CO)c4)c(-c4ccc(F)cc4)nc(N)n3c2=O)nc1` [Example 1-61, 5-amino-7-(4-fluorophenyl)-8-[2-(hydroxymethyl)-6-methyl-4-pyridyl]-2-[(5-methyl-2-pyridyl)methyl]-[1,2,4]triazolo[4,3-c]pyrimidin-3-one], the Ki was greater than 1.58 µM in assay [1] and 0.00158 µM in assay [2].
For `Cc1cc(-c2c(-c3ccccc3)nc(N)n3c(=O)n(Cc4ccc(F)cn4)nc23)cc(N(C)C)n1` [Example 1-71, 5-amino-8-[2-(dimethylamino)-6-methyl-4-pyridyl]-2-[(5-fluoro-2-pyridyl)methyl]-7-phenyl-[1,2,4]triazolo[4,3-c]pyrimidin-3-one], in that order: 0.631 µM and 0.02 µM.
The like results for `Cc1cc(-c2c(-c3ccccc3)nc(N)n3c(=O)n(CCc4ccccn4)nc23)cc(C)n1` [Example 1-86, 5-amino-8-(2,6-dimethyl-4-pyridyl)-7-phenyl-2-[2-(2-pyridyl)ethyl]-[1,2,4]triazolo[4,3-c]pyrimidin-3-one] were, in that order, 0.794 µM and 0.00501 µM.
Consider `Cc1cc(-c2c(-c3ccccc3)nc(N)n3c(=O)n([C@H](C)c4ccncc4)nc23)cc(C)n1` [Example 1-26, (R)-5-amino-8-(2,6-dimethyl-4-pyridyl)-7-phenyl-2-[1-(4-pyridyl)ethyl]-[1,2,4]triazolo[4,3-c]pyrimidin-3-one], for which the results for the Ki in assay [1] and in assay [2] were 0.794 µM and 0.0158 µM, respectively.
The like results for `Cc1cc(-c2c(-c3ccccc3)nc(N)n3c(=O)n(CC4CCCOC4)nc23)cc(C)n1` (single isomer, unassigned) [Example 2-81-iso-1, 5-amino-8-(2,6-dimethyl-4-pyridyl)-7-phenyl-2-(tetrahydropyran-3-ylmethyl)-[1,2,4]triazolo[4,3-c]pyrimidin-3-one] were, in that order, 0.158 µM and 0.002 µM.
For `Cc1cc(-c2c(-c3ccccc3)nc(N)n3c(=O)n(CCc4ccc(F)cc4)nc23)cc(C)n1` [Example 1-83, 5-amino-8-(2,6-dimethyl-4-pyridyl)-2-[2-(4-fluorophenyl)ethyl]-7-phenyl-[1,2,4]triazolo[4,3-c]pyrimidin-3-one], in that order: 0.251 µM and 0.02 µM.
The like results for `Cc1cc(-c2c(-c3ccccc3)nc(N)n3c(=O)n(CCN4CCCCCC4c4cccn4C)nc23)cc(C)n1` (stereo not shown) [Example 1-96, 5-amino-8-(2,6-dimethyl-4-pyridyl)-2-[2-[2-(1-methylpyrrol-2-yl)azepan-1-yl]ethyl]-7-phenyl-[1,2,4]triazolo[4,3-c]pyrimidin-3-one] were, in that order, 0.251 µM and 0.00398 µM.
As to `Cc1cc(-c2c(-c3ccccc3)nc(N)n3c(=O)n(CCC(F)(F)F)nc23)cc(Cl)n1` [Example 2-48, 5-amino-8-(2-chloro-6-methyl-4-pyridyl)-7-phenyl-2-(3,3,3-trifluoropropyl)-[1,2,4]triazolo[4,3-c]pyrimidin-3-one], the Ki in assay [1] is 0.00631 µM; in assay [2] it was 0.000794 µM.
The like results for `CCC(c1ccc(F)cn1)n1nc2c(-c3cc(C)nc(C)c3)c(-c3ccccc3)nc(N)n2c1=O` (single isomer, unassigned) [Example 1-38-iso-2, 5-amino-8-(2,6-dimethyl-4-pyridyl)-2-[1-(5-fluoro-2-pyridyl)propyl]-7-phenyl-[1,2,4]triazolo[4,3-c]pyrimidin-3-one] were, in that order, greater than 2 µM and 0.2 µM.
The like results for `Cc1cc(-c2c(-c3ccccc3)nc(N)n3c(=O)n(CCC4CCN(C)CC4)nc23)cc(C)n1` [Example 2-97, 5-amino-8-(2,6-dimethyl-4-pyridyl)-2-[2-(1-methyl-4-piperidyl)ethyl]-7-phenyl-[1,2,4]triazolo[4,3-c]pyrimidin-3-one] were, in that order, 0.631 µM and 0.00631 µM.
For `Cc1cc(N2CCC(NCCn3nc4c(-c5cc(C)nc(C)c5)c(-c5ccccc5)nc(N)n4c3=O)CC2)[nH]n1` [Example 1-95, 5-amino-8-(2,6-dimethyl-4-pyridyl)-2-[2-[[1-(3-methyl-1H-pyrazol-5-yl)-4-piperidyl]amino]ethyl]-7-phenyl-[1,2,4]triazolo[4,3-c]pyrimidin-3-one], in that order: greater than 2 µM and 0.316 µM.
Consider `Cc1cc(-c2c(-c3ccccc3)nc(N)n3c(=O)n(CCC#N)nc23)cc(C)n1` [Example 2-11, 3-[5-amino-8-(2,6-dimethyl-4-pyridyl)-3-oxo-7-phenyl-[1,2,4]triazolo[4,3-c]pyrimidin-2-yl]propanenitrile], for which the Ki is 0.794 µM in assay [1] and 0.0158 µM in assay [2].
For the compound `Cc1cc(-c2c(-c3ccccc3)nc(N)n3c(=O)n(Cc4ncc(F)cn4)nc23)cc(C)n1` [Example 1-35, 5-amino-8-(2,6-dimethyl-4-pyridyl)-2-[(5-fluoropyrimidin-2-yl)methyl]-7-phenyl-[1,2,4]triazolo[4,3-c]pyrimidin-3-one], the Ki in assay [1] was 1 µM; in assay [2] it was 0.0158 µM.
For `Cc1cc(-c2c(-c3ccccc3)nc(N)n3c(=O)n(C(CN)c4c(F)cccc4F)nc23)cc(C)n1` (stereo not shown) [Example 1-34, 5-amino-2-(2-amino-1-(2,6-difluorophenyl)ethyl)-8-(2,6-dimethylpyridin-4-yl)-7-phenyl-[1,2,4]triazolo[4,3-c]pyrimidin-3(2H)-one], in that order: 0.1 µM and 0.001 µM.
